The assay has as its target T1, HaHSL (Falsihalocynthiibacter arcticus, UniProt A0A126UZB4).
T1 construct: gene RC74_09005; full-length ORF (789 bp); mass peak 31,740; monomer; catalytic Ser138, Glu216, His244
The assay can be described thus: p-nitrophenol release at […] nm, Lineweaver-Burk. The conditions noted are these: free enzyme; 20 mM Tris-HCl, 100 mM NaCl, pH 7.4 (spectroscopic analyses); standard assay pH 8.0, 25 °C. It is filed as biochemical.

T1 sequence (A0A126UZB4 entry or part of it): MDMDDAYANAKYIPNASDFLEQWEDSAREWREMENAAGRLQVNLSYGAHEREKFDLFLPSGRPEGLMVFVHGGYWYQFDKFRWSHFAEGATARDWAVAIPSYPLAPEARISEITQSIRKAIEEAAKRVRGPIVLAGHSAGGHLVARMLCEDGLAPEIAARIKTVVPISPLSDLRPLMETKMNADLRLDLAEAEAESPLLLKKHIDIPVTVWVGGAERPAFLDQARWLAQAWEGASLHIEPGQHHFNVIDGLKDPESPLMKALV

As for `CC(=O)Oc1ccc([N+](=O)[O-])cc1` [p-nitrophenyl acetate], the Km turned out to be 0.21 mM.

Take `CCCC(=O)Oc1ccc([N+](=O)[O-])cc1` [p-nitrophenyl butyrate]: the Km stood at 1.97 ± 0.53 mM.

Consider `CCCCCC(=O)Oc1ccc([N+](=O)[O-])cc1` [p-nitrophenyl hexanoate], for which the Michaelis constant (Km) stood at 2.32 ± 0.63 mM.

Usually Km stands for the substrate concentration at which the rate is half of its maximum.

Values taken from paper PMC6921082, “Molecular Characterization of a Novel Cold-Active Hormone-Sensitive Lipase (HaHSL) from Halocynthiibacter Arcticus” (Biomolecules, 2019).
